Test results published in PMC10525132, “Potent Antioxidant and Anti-Tyrosinase Activity of Butein and Homobutein Probed by Molecular Kinetic and Mechanistic Studies” (Antioxidants, 2023).
Values joined by “and” are separate entries in the source; they are usually repeats but may differ in a detail not shown here. Equal values may be shown once. Read-outs that look alike come from different tables or passages of the source.

Key:
[1] = cited from earlier work
[2] = Inhibited autoxidation of methyl linoleate in Triton X-100 micelles (O2 uptake kinetics)
Procedure: Autoxidation studies were performed as previously described, with slight modifications. In a typical experiment, 2.5 mL of air-saturated buffered (PBS, 50 mM, pH 7.4) aqueous dispersion of MeLin (final concentration 2.74 mM) in Triton™ X-100 (final concentration 16 mM) micelles were prepared by vortex mixing. A fresh stock solution of AAPH was added (final concentration 2.5 mM), immediately followed by addition (5–30 μL) of a stock solution of the antioxidant in acetonitrile (final concentration of 1–20 μM) and by additional vortex mixing (5 s). The mixture was sealed in a 2 mL glass vial provided with a PTFE-coated stirring bar and capped with the O2 sensor. The sample was equilibrated at 37 °C in a thermostatted bath equipped with a sealed magnetic stirrer, and oxygen concentration was monitored with time as previously described. Oxygen consumption in the absence of antioxidants was compared with that recorded in the presence of butein, homobutein, or α-tocopherol (α-TOH) as the reference antioxidant. […]. The stoichiometric factor n was determined from the length of the inhibited period τ by Equation (3). The rate of initiation Ri was determined in preliminary experiments using α-TOH as the inhibitor (n = 2) by Equation (3). (1) −d[O2]/dt=kp[RH]Ri/nkinh[AH]+Ri (2) R0/Rinh−Rinh/R0=nkinh[AH]/2ktRi (3) n=Riτ/[AH]
To study the antioxidant activity of butein and homobutein on quantitative grounds, we performed inhibited autoxidation studies using biomimetic neutral micelles of methyl linoleate (MeLin) in aqueous Triton™ X-100 (with 50 mM PBS, pH 7.4, 37 °C), since it is a well-validated model we and others used in previous studies. The reaction kinetics was followed by monitoring oxygen consumption via miniaturized NIR-fluorescence-quenching O2 probes, according to a previously validated protocol, both in the absence and in the presence of different concentrations of butein or homobutein. The reaction was initiated thermally in the aqueous phase by the controlled decomposition of the azo compound AAPH so as to clearly distinguish the chain-breaking mechanism from other efficacies based on interference with the initiation process (e.g., the Fenton reaction by metal chelation) and α-TOH was used as the reference antioxidant.

[3] = parameters: method as in doi:10.1021/ja00310a049; conditions: reference value used for calibration, cited from earlier work

In the case of `CC(C)(C)c1cc(O)c(O)c(C(C)(C)C)c1` [3,5-di-tert-butylcatechol], the BDEOH [1] is listed as 78.2 kcal/mol.

For `CC(C)(C)c1cc(C(C)(C)C)c(O)c(C(C)(C)C)c1` [TBP, 2,4,6-tri-tert-butylphenol], the BDEOH ([1]; reference phenol) is given as 80.1 kcal/mol.

For `OCCc1ccc(O)c(O)c1` [hydroxytyrosol], the BDEOH [1] is listed as 80.8 kcal/mol.

In the case of `Cc1c(C)c2c(c(C)c1O)CC[C@@](C)(CCC[C@H](C)CCC[C@H](C)CCCC(C)C)O2` [α-TOH, (R,R,R)-α-tocopherol], the “kinh (inhibition rate constant)” value ([2]; AAPH (2.5 mM) initiated autoxidation of MeLin/Triton X-100 micelles, 37 °C, pH 7.4) is given as 22.4 ± 5.8 10^3 M^−1s^−1, the “kinh (inhibition rate constant)” value ([2]; MeLin in Triton X-100 micelles, pH 7.4, 37 °C) is given as “(2.2 ± 0.6) × 10^4 M^−1s^−1” and the “n (stoichiometric factor of peroxyl radical trapping)” value [3] is given as 2 and 2 ^2. The “n (stoichiometric factor of peroxyl radical trapping)” value ([3]; listed as tocopherol) was 2.0 and the BDEOH [1] was 77.1 ^3 kcal/mol.
